We go through six compounds from US9586959B2, “Substituted tricyclic heterocycles as histamine 4 receptor inhibitors” (C&C RESEARCH LABORATORIES, priority 2011, dated 2017).

A short description of data set [1]: Metabolic stability in human microsome. Particulars: for Metabolic stability (CLh. int), Human: human microsome 1 mg/mL, 5 μM compound, 1 mM NADPH.
In data set [2] the test system is histamine-induced mast cell migration (trachea). In words: Histamine-induced mast cell migration. Conditions: 20 mg/kg oral, 0.1 M histamine aerosol, 2 days. Type of data set: in vivo, Balb/c mice. Here is the method:
Female, Balb/c mice (7 weeks old, 20±3 g) were purchased from OrientBio Co., Ltd.
The animals were housed under conditions of controlled temperature (23±3° C.), humidity (50±5%) and lighting with food and water available ad libitum.
Mice were dosed with either vehicle (20% cyclodextrin in second distilled water) or the compound by orally administration. The Compound (20 mg/kg) dissolved in a vehicle and administered orally at a volume of 10 mL/kg. After 15 minutes, mice were challenged by a 20 min aerosol inhalation of PBS (phosphate buffered saline) or 0.1 M histamine (dissolving in PBS). This process was repeated for 2 days. After a final challenge, the tracheae were cleared of blood via perfusion of PBS and tracheae were extracted, the tracheae were fixed in 10% (w/v) formaldehyde for subsequent paraffin cross-sectioning and toluidine blue staining. Total mast cells were calculated, and a mean was reported. (The Journal of Pharmacology and Experimental Therapeutics, 2004, 309, 404-413). Statistical analysis was analyzed using one-way ANOVA with Dunnett test. Values of p<0.05 were considered statistically significant.

In data set [3] the target is human histamine 4 receptor (hH4R) (Homo sapiens (Human), UniProt Q9H3N8). Briefly: Binding affinity of human histamine 4 receptor (hH4R), [3H] labeled histamine displacement. Conditions: hH4R-overexpressed cell membrane, [3H] histamine. In a few lines:
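Membranes of hH4R-overexpressing cells (25 μg) incubated with compound and [3H]histamine (diluted to 1 μM before addition) for 30 min at 27° C. Non-specific binding defined with histamine (100 μM before addition); bound radioligand collected by filtration on PEI-presoaked glass fibre, washed with 50 mM Tris-HCl pH 7.4, counted by scintillation (CPM).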

Data set [4] is described as follows: Mouse pharmacokinetics (oral). Type of data set: in vivo. Particulars: plasma, 50 mg/kg, ICR mouse, 5 mg/mL solution at 10 mL/kg; for AUC(0-inf): read-out: Mouse pharmacokinetics AUCinf; for half-life: read-out: Mouse pharmacokinetics t1/2 (converted). Here is the method: The weight of each ICR mouse and SD rat was properly 20˜30 g and 200˜300 g, and dosage of the compound of the present invention was 10 mL/kg for mice and 5 mL/kg for rats, and administered orally using Zonde. Blood collection was performed at 0.25, 0.5, 1, 2, 4, 6, 8 and 24 hours by orbital venous blood collection using a capillary tube coated with an anticoagulant, and then plasma was isolated using a centrifuge and kept in a freezer.
Plasma collected from animals and standard concentration material were pretreated using solid-phase extraction, and concentration of the compound of the invention was determined using a liquid chromatography mass spectrometer (Agilent HPLC, API-3000).
According to the resulting concentration value, the pharmacokinetics parameter was found using WinNonlin (Version 6.2) and half-life (t1/2), maximum blood concentration (Cmax) and infinite area under the curve (AUCinf) are shown in Tables 6 and 7 below.

The test system of data set [5] is compound 48/80-induced itching, ICR mice. In words: Compound 48/80-induced itching model in ICR mice. Type of data set: in vivo. Conditions: 50 mg/kg oral, compound 48/80 100 μg intradermal, 20 min count. On the procedure: Female, ICR mice (8 weeks old) were purchased from OrientBio Co., Ltd. The animals were housed under conditions of controlled temperature (23±3° C.), humidity (50±5%) and lighting with food and water available ad libitum.
The hair was clipped using clippers (8000AD, THRIVE) over the rostral part of the back 24 hours before the experiment under anesthesia with isoflurane. Compound 48/80 (100 μg) were dissolved in saline and a volume of 40 μL injected intradermally into the rostral part of the back. Mice were dosed by orally with either vehicle (20% cyclodextrin in second distilled water) or the compound by orally administration. The Compound (50 mg/kg) dissolved in a vehicle (20% cyclodextrin in second distilled water) and administered orally at a volume of 10 mL/kg.
Mice (n=8-10 per group) were divided into 3 groups (normal group, control group and experimental group). The animals were randomized for similar body weight distribution. A vehicle or the compound was administered 20 minutes before injection of compound 48/80 or saline. Immediately after intradermal injection, the animals were returned to an acrylic cage (approximately 30×30×30 cm, access production) composed of four cells, to which they had been acclimated for at least 1 hour before the experiment, for observation of itch responses. A camera (Samsung, VLUUNV30) was positioned above the mice to record their response. Itch was measured by blinded counting of the number of bouts in the 20 min period immediately after the intradermal injection. A number of scratching was defined as 3 or more individual rapid scratch movements with the hind paws around the injection site (J. Pharmacol. Sci. 2006, 100, 285-288; European J. of Pharmacol. 2002, 448, 175-183). All data were analyzed by using Excel and Prism, and all values are expressed as the mean±S.E.M. The inhibitory effect of compounds is shown as a percentage of the maximal response to histamine (100% control group). Statistical analysis was analyzed using one-way ANOVA with Dunnett test. Values of p<0.05 were considered statistically significant.

For data set [6], the system named is oxazolone-induced atopic dermatitis, Balb/c mice. Briefly: Oxazolone-induced atopic dermatitis model in Balb/c mice. Type of data set: in vivo. Conditions: BID, oral, days 8-28. Here is the method: Female, Balb/c mice (6 weeks old, 20±3 g) were purchased from OrientBio Co., Ltd. The animals were housed under conditions of controlled temperature (23±3° C.), humidity (50±5%) and lighting with food and water available ad libitum.
On the beginning day (day 1), mice were sensitized by the topical application of 50 μL of 1% oxazolone in acetone and olive oil (4:1 ratio) on the abdominal skin. On day 8, 10, 12, 15, 17, 19, 22, 24 and 26, 25 μL of 0.2% oxazolone was applied topically on the inner side of right ear of each mouse. Between days 8 and 28, the compound of the invention was administered orally (10 mL/kg) twice a day in the morning and afternoon, and on days 12, 19 and 27, the thickness of the right ear of the mouse was measured. On day 28, the ear tissue of the mouse was extracted, fixed in 10% formalin solution, and then a tissue slide was prepared, stained with H&E (hematoxylin & eosin), and then the thickness of the ear was observed (Journal of Investigative Dermatology, 2008, 128, 79-86). Statistical analysis was analyzed using one-way ANOVA with Dunnett test. Values of p<0.05 were considered statistically significant.

Chain of human histamine 4 receptor (hH4R) (Q9H3N8 whole entry): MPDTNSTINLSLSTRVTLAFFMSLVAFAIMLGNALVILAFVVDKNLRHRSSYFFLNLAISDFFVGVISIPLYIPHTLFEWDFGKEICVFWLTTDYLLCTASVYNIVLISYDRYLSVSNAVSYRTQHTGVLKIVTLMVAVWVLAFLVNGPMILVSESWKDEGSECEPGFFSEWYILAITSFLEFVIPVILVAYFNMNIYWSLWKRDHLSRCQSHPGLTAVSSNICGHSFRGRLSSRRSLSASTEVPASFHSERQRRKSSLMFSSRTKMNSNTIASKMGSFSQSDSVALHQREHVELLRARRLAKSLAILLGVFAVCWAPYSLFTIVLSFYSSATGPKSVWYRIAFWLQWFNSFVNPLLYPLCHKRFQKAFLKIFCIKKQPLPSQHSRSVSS

For the compound `CN1CCN(c2nc3ncc(Cl)cc3n3cnnc23)CC1` [Compound 4, 8-Chloro-4-(4-methylpiperazin-1-yl)pyrido[2,3-e][1,2,4]triazolo[4,3-a]pyrazine], the “Metabolic stability (CLh. int), Human” value in data set [1] is 2200 µL/min/mg. In addition, the “Mast cell migration (% change from control group)” value in data set [2] is 70.3^1%. In data set [3], this compound came in with an IC50 of 40 nM. Moreover, in data set [4], the concentration peaked (Cmax) at 14900 ng/mL, the AUC(0-inf) was determined as 35600 ng·h/mL and the half-life is 2.21 h. Besides, the “Number of scratching (% change from control group)” value in data set [5] is reported as 49.6^1%. For the same compound, the “Ear epidermis thickness (% change from control group)” value in data set [6] (100 mg/kg) stood at 47.2%.
With `Clc1cnc2nc(N3CCNCC3)c3nncn3c2c1` [Compound 7, 8-Chloro-4-(piperazin-1-yl)pyrido[2,3-e][1,2,4]triazolo[4,3-a]pyrazine], the “% remaining in 30 minutes” value in data set [1] (human microsome, 30 minutes) is recorded as “NC^y: Not calculable (99.8% remaining in 30 minutes)”. Also, in data set [2], the “Mast cell migration (% change from control group)” value is 43.1^1%. In addition, the IC50 in data set [3] is 133 nM. Further, in data set [4], the highest level (Cmax) was 6570 ng/mL, the AUC(0-inf) turned out to be 16500 ng·h/mL and the half-life was 1.28 h.
`CNC1CN(c2nc3ncc(Cl)cc3n3cnnc23)C1` [Compound 18, 1-(8-Chloropyrido[2,3-e][1,2,4]triazolo[4,3-a]pyrazin-4-yl)-N-methylazetidin-3-amine]: in data set [1], the “Metabolic stability (CLh. int), Human” value was 4200 µL/min/mg. The same compound registered an IC50 in data set [3] of 55 nM. In addition, in data set [4], the peak level (Cmax) was 12300 ng/mL, the AUC(0-inf) was 23700 ng·h/mL and the half-life was 1.32 h. Further, the “Number of scratching (% change from control group)” value in data set [5] is recorded as 50.9^1%.
For `CNC1CN(c2nc3ncc(Br)cc3n3cnnc23)C1` [Compound 24, 1-(8-Bromopyrido[2,3-e][1,2,4]triazolo[4,3-a]pyrazin-4-yl)-N-methylazetidin-3-amine], in data set [1], the “Metabolic stability (CLh. int), Human” value was determined as 1330 µL/min/mg. The “Mast cell migration (% change from control group)” value in data set [2] was 60.0^1%. This compound also came in with an IC50 in data set [3] of 36 nM. In data set [4], the highest level (Cmax) was 18900 ng/mL, the AUC(0-inf) came to 32200 ng·h/mL and the half-life was 0.96 h. Moreover, the “Number of scratching (% change from control group)” value in data set [5] was 47.9^1%. In data set [6] (100 mg/kg), the “Ear epidermis thickness (% change from control group)” value was 51.2^1%.
As for `CNC1CN(c2nc3ncc(I)cc3n3cnnc23)C1` [Compound 48, 1-(8-Iodopyrido[2,3-e][1,2,4]triazolo[4,3-a]pyrazin-4-yl)-N-methylazetidin-3-amine], the “Metabolic stability (CLh. int), Human” value in data set [1] came out at 400 µL/min/mg. The compound also registered an IC50 in data set [3] of 65 nM. In addition, in data set [4], the Cmax came out at 10200 ng/mL, the AUC(0-inf) came out at 21600 ng·h/mL and the half-life is 1.46 h. Moreover, the “Number of scratching (% change from control group)” value in data set [5] came to 30.3%.
For `CNC1CN(c2nc3ncc(Br)cc3n3nnnc23)C1` [Compound 95, 1-(8-Bromopyrido[2,3-e]tetrazolo[1,5-a]pyrazin-4-yl)-N-methylazetidin-3-amine], the “Metabolic stability (CLh. int), Human” value in data set [1] was 5500 µL/min/mg. In addition, in data set [3], the IC50 amounted to 44 nM. Also, in data set [4], the Cmax is 15400 ng/mL, the AUC(0-inf) is 98300 ng·h/mL and the half-life was 4.03 h. For the same compound, in data set [5], the “Number of scratching (% change from control group)” value is listed as 93.6^1%. The “Ear epidermis thickness (% change from control group)” value in data set [6] (50 mg/kg) is 34.9%.
